Data on one substance can be found in patent publication US20100150938A1, “METHODS AND COMPOSITIONS FOR REDUCING INFLAMMATION AND TREATING INFLAMMATORY DISORDERS” (UNIVERSITY OF MASSACHUSETTS, priority 2008, published 2010).

Test [1] deals with mouse microglia. Put plainly: IL-1β release from LPS-primed mouse microglia (ELISA). The note with it: LPS-primed primary and immortalized mouse microglia, 10 μM. Format: cell-based. As to the method:
For primary cultures, bone marrow-derived macrophages and microglia were isolated as described^42,43 and cultured in DMEM supplemented with L-glutamine, ciprofloxacin (Cellgro, Manassas, Va.) and 10% fetal calf serum (Hyclone, Logan, Utah) Immortalized macrophage and microglial cell lines were generated using J2 recombinant retrovirus (carrying v-myc and v-raf oncogenes)^44,45. Briefly, primary bone marrow cells were incubated in L929 conditioned medium for 3-4 days to induce macrophage differentiation. Cells were then infected with J2 recombinant retrovirus and maintained in culture until cells were growing in the absence of conditioned medium. Similarly, primary mixed glial cultures were cultured until fully confluent. After two consecutive infections with J2 retrovirus, cells were maintained in normal medium until growth of microglial cells in colonies was observed. The semi-adherent colonies of microglial cells were washed off and cultured in new flasks. […] Microglial cell lines form wild type (C57/BL6), Caspase-1^−/− and IL-IR^−/− mice as well as macrophage cell lines from wild type (C57BL6), NALP3 -, IPAF- and ASC-deficient mice were generated and used for experiments as indicated.
Stimulations were carried out in serum free DMEM medium. Microglial cells and macrophages were primed with 100 U/ml IFNγ (Griess assay, TNF ELISA, real-time quantitative PCR) or 100 ng/ml ultrapure LPS (IL-1β ELISA, FLICA, ASC-CFP microglia cell line assay, Western blot) 1-3 h prior to stimulation with Aβ, revAβ, zymosan, ATP or transfection with dAdT.
Cell culture supernatants were assayed for IL-1β and TNFα using ELISA kits from R&D Systems (Minneapolis, Minn.) according to the manufacturer's instructions. Nitric oxide was measured by Griess reaction of nitrites accumulated in the supernatants using chemicals from Sigma.

Test [2] relates to caspase-1. Put plainly: Caspase-1 cleavage/activation in mouse macrophages (Western blot p10). The class given is cell-based. As to conditions: LPS-primed wild type bone marrow-derived macrophages, Aβ and reverse Aβ 10 μM. As to the method: Bone marrow derived macrophages were generated as described (Severa, M et al. Journal of Biological Chemistry 281:26188-26195 (2006)). Human PBMCs were isolated by from whole blood of healthy volunteers by density gradient centrifugation. Lysis of red blood cells was performed using red blood cell lysis buffer (Sigma). Experiments in PBMCs and macrophages were carried out at a cell density of 2×10^6 cells/ml. All primary cells and cell lines except THP-1 cells were cultured in DMEM supplemented with L-glutamine, ciprofloxacin (Cellgro, Manassas, Va.) and 10% fetal calf serum (Hyclone, Logan, Utah). THP-1 cells were cultured in RPMI supplemented with 10% fetal calf serum (Hyclone), L-glutamine, sodium pyruvate (Cellgro), and ciprofloxacin. One day prior to stimulation, THP-1 cells were differentiated using 0.5 μM PMA for three hours, washed three times and plated for stimulation. All experiments that were performed for Western blot analysis were carried out in serum free DMEM medium. ATP stimulations were carried out at 5 mM one hour prior to harvesting supernatants.
Cell culture supernatants were precipitated by adding an equal volume of methanol and 0.25 volumes of chloroform, vortexed and centrifuged at 20.000×g for 10 min. The upper phase was discarded and 500 μl of methanol was added to the interphase. This mixture was centrifuged at 20.000×g for 10 min and the protein pellet dried at 55° C., resuspended in Laemmli buffer and boiled at 99° C. for 5 min. Samples were separated by SDS-PAGE (15%) and transferred onto nitrocellulose membranes. As indicated, blots were incubated with rabbit polyclonal antibody to anti murine caspase-1 p10 (sc-514, Santa Cruz Biotechnology, Santa Cruz, Calif.), rabbit polyclonal anti human caspase-1 p10 (sc-515, Santa Cruz Biotechnology), rabbit polyclonal anti human cleaved IL-1β (Asp116) (Cell Signaling, Boston, Mass.) or rabbit polyclonal anti murine cathepsin B (R&D Systems, Minneapolis, Minn.).
Cell culture supernatants were precipitated by adding an equal volume of methanol and 0.25 volumes of chloroform, vortexed and centrifuged at 20,000×g for 10 min. The upper phase was discarded and 500 μl of methanol was added to the interphase. This mixture was centrifuged at 20,000×g for 10 min and the protein pellet dried at 55° C., resuspended in Laemmli buffer and boiled at 99° C. for 5 min Samples were separated by SDS-PAGE (15%) and transferred onto nitrocellulose membranes. Blots were incubated with rabbit polyclonal antibody to anti murine caspase-1 p10 (sc-514, Santa Cruz Biotechnology, Santa Cruz, Calif.).

For test [3], the system named is caspase-1. Nature of the test: Caspase-1 activation in microglia (FLICA, confocal microscopy, flow cytometry). The class given is cell-based, mouse. As to conditions: immortalized microglia, Aβ 10 μM, revAβ 10 μM, ATP 1 mM, 4 h. How it is done:
For assessment of microglia-induced neurotoxicity, CAD mouse neuronal cells^47 were seeded on poly-L-lysine coated glass cover slips and grown in F12/DMEM supplemented with ciprofloxacin (Cellgro, Manassas, Va.) and 10% fetal calf serum (Hyclone, Logan, Utah) for 24 h. Differentiation was induced by withdrawal of serum for 48 h Immortalized microglia from wildtype or caspase-1^−/− mice were added in serum free medium to obtain mixed neuronal/microglial cultures and immediately stimulated. 72 h after stimulation with Aβ or media, cells were fixed, stained for the neuron-specific marker TuJ-1 and microglial marker CD11b, and imaged by confocal microscopy (Leica SP2 AOBS). Caspase-1 activity in microglial cells was assessed using the caspase-1 FLICA™ kit (Immunochemistry Technologies, Bloomington, Minn.) according to the manufacturer's instructions.
For evaluation of lysosomal damage, cells were incubated with LysoTracker green (1:2000) for 30 min and stimulated as described. Lysosomal damage was defined as loss of LysoTracker fluorescence as assessed by flow cytometry. All flow cytometry experiments were performed on an LSRII cytometer (BD Biosciences), data were acquired by DIVA software (BD Biosciences) and analyzed with FlowJo software (Tree Star Inc., Ashland, Oreg.).
IL-1β maturation is controlled by caspase-1 after assembly of the inflammasome, a multi protein complex that activates pro-caspase-1. In order to test whether Aβ activates caspase-1, we measured levels of activated caspase-1 using a fluorescent cell permeable probe (FAM-YVAD-Fmk), which covalently binds only to activated caspase-1 (Fluorescent labeled Inhibitors of Caspases, FLICA)^14. […] Similar results were obtained in primary microglial cultures (FIG. 15c).
(In general: A flow cytometer gives signals particle by particle.)

As for Aβ 1-42 peptide, the “IL-1β release into supernatants induced by the peptide” value in test [1] was “time-dependent release of IL-1β”; in test [1] (listed as fibrillar Aβ), “early and pronounced IL-1β release”. The “caspase-1 cleavage (p10) induced by the stimulus” value in test [2] is reported as “induced caspase-1 cleavage (p10)”. Further, the “caspase-1 positive microglial cells after stimulation” value in test [3] is on record as “robust increase”.
